Measurements taken from patent US5990078A, “Means of increasing estrogen receptor levels in neural tissue” (The Trustees of Columbia University in the City of New York, priority 1996, dated 1999).
“Also recorded” adds a separate entry of the source.

Tests used:
[1] = test system: p75^NGFR mRNA; test: Northern blot analysis of p75NGFR mRNA in PC12 cells; type: cell-based, rat; details: NGF-treated PC12 cells
Method: PC12 cells were cultured on collagen-coated coverslips or tissue culture dishes in phenol red-free RPMI 1640 (Gibco BRL) nutrient medium supplemented with 10% (heat-inactivated) gelded (steroid-deficient) horse serum (JRH Biological), according to a modification of standard procedures. In these experiments, fetal calf serum, which contains physiologic levels of estrogen, (32 pg/ml) was not used.
Total RNA, prepared by a modification of the Chomczynski and Sacchi method, was size-fractionated (10-20 μg/lane) on a 1.2% agarose-18% formaldehyde gel and capillary-transferred to nylon membrane (Hybond-N; Amersham). Filters were prehybridized (4-18 h) and hybridized (36-40 h) at 42° C. in 50% Formamide, 3× SSC, 0.1M Tris, 5× Denhardt's and 10% Dextran Sulfate. Probes were labeled with [α-^32 P]-dCTP by the random priming procedure (Random Priming kit, Boehringer Mannheim). trkA mRNA was identified by hybridization with pDM97, a 450 bp trkA-specific probe corresponding to the extracellular and transmembrane domains of the trkA gene [67; gift of L. F. Parada, NCI-FCRDC]. p75^NGFR was probed by hybridization with p5b, a 2 Kb probe corresponding to the extracellular domain of the p75^NGFR gene. Blots were washed first in 0.2×SSC and 0.5% SDS briefly at room temperature and then for 2 h at 60° C., with frequent changes of wash buffer. Filters were then exposed to film (Kodak X-Omat) between intensifying screens and stored at -70° C. for 1-4 days before developing.
Using a standard densitometry package (Jandel Scientific), optical density measurements were obtained from X-ray film. trkA and p75^NGFR transcript densities were normalized to an internal control to account for variation in the amount of RNA loaded.
Total RNA was analyzed by Northern blot analyses, using ^32 P-labeled cDNA probes for trkA and p75^NGFR.

[2] = test system: PC12 cells; test: Morphology / neurite differentiation of PC12 cells; type: cell-based, rat; details: estrogen exposure
[3] = test system: ERKs 1 and 2; test: Tyrosine phosphorylation of ERKs 1 and 2 in cerebral cortical explants; type: cell-based; details: P2 cortical explants
Method: (§1) Estrogen and the neurotrophins have important roles in the developing and adult central nervous system (CNS). […] The hypothesis that estrogen/neurotrophin receptor co-expression leads to reciprocal regulation at the level of signal transduction, through cross-coupling of converging estrogen and neurotrophin signaling pathways whose end-points in the nucleus may be the very same genes was tested. Postnatal day 2 cerebral cortex was maintained as organotypic explants in roller tube culture for 7 days.

[4] = test system: ERKs; test: In-gel kinase assay of ERKs with MBP as substrate, cortical explants; type: cell-based
Method: as §1

[5] = test system: trk receptors; test: Tyrosine phosphorylation of the trk receptors, cortical explants; type: cell-based
Method: as §1

[6] = test system: ERKs 1 and 2; test: ERK activation in PC12-E2 cells; type: cell-based
Source text: (§2) It has been previously reported that wild-type, differentiated PC12 pheochromocytoma cells express very low levels of estrogen receptors. Here it is reported that a PC12 cell variant, PC12-E2 (Wu, Bradshaw, J. Cell Physiol. 164:1995), is estrogen responsive and expresses high estrogen receptor level (≈50% of the levels observed in estrogen receptor over-expressing MCF-7 cells). Moreover, although tyrosine phosphorylation of the estrogen receptor appeared to be expressed constitutively, these cells responded to added estrogen. PC12-E2 responsiveness to estrogen was determined morphologically and by measuring estradiol-induced ERK activation. […] Preliminary co-precipitation experiments show an association between src and estrogen receptor, src with MEK (MAP Kinase/ERK-activating Kinase), and MEK with B-raf, MEK, which phosphorylates the ERKs on tyrosine residues, is known to exist as a complex consisting of at least hsp90 and B-raf.

[7] = test system: ERK; test: ERK stimulation in wild-type, differentiated PC12 cells; type: cell-based
[8] = test system: PC12-E2 cells; test: Morphological study of neurite growth in PC12-E2 cells; type: cell-based
Source text: as §2

[9] = test system: trkA mRNA; details: adult female rat DRG neurons in vivo [90]; listed as estrogen; cited from earlier work
[10] = test system: p75^NGFR mRNA; details: adult female rat DRG neurons in vivo [90]; cited from earlier work
[11] = test system: estrogen receptor mRNA; test: Semiquantitative RT-PCR of estrogen receptor mRNA in cortical and basal forebrain explant cultures; type: cell-based, rat; details: cortical and basal forebrain explants, hrNGF 100 ng/mL
Source text: Time-pregnant rats (Sprague-Dawley) were obtained from Zivic (Miller, Pa.). Organotypic explant cultures were obtained from postnatal day (P) 2 rat brains (P1=day of birth) of both sexes. Brains were slice coronally into 360-μm thick sections using a brain slicer (Toran-Allerand, 1990). A total of four coronal sections from the periseptal region were isolated and dissected into four pairs of hemicoronal cortical [cingulate and neocortex, FIG. 6(a)] and basal forebrain [septum, nuclei of the diagonal band of Broca and ventral pallidum, FIG. 6(b)] sections. Hemicoronal explants were maintained in roller tube assemblies (Caeser et al., 1989; Gahwiler et al., 1991), on collagen coated coverslips for 8 days in vitro, in serum supplemented (25% gelded horse serum, JRH), steroid deficient and phenol red free medium containing 50% basal medium (Eagle's), 25% Hank's balanced salt solution (HBSS), and 0.65% glucose. […] Cultures were fed 3 times a week.
Estrogen receptor mRNA expression was assessed by semiquantitative RT-CPR, using RNA isolated from pooled cortical (two explants pooled/sample) and basal forebrain (four explants pooled/sample) cultures. PCR primers (gift of B. Schachter, Mount Sinai Hospital) were designed to amplify a 300 base pair (bp) sequence from the region coding for the ligand binding domain (Sohrabji et al., 1994b). […]

[12] = test system: estrogen receptor mRNA; test: Isotopic in situ hybridization of estrogen receptor mRNA in cortical explant cultures; type: cell-based, rat; details: cortical explants, hrNGF 100 ng/mL
Source text: (§3) Time-pregnant rats (Sprague-Dawley) were obtained from Zivic (Miller, Pa.). Organotypic explant cultures were obtained from postnatal day (P) 2 rat brains (P1=day of birth) of both sexes. Brains were slice coronally into 360-μm thick sections using a brain slicer (Toran-Allerand, 1990). A total of four coronal sections from the periseptal region were isolated and dissected into four pairs of hemicoronal cortical [cingulate and neocortex, FIG. 6(a)] and basal forebrain [septum, nuclei of the diagonal band of Broca and ventral pallidum, FIG. 6(b)] sections. […]
Estrogen receptor mRNA was detected in cerebral cortical cultures in using […] oligonucleotide probes complementary to a sequence within rat estrogen receptor mRNA coding for hormone binding domain (Miranda et al., 1993b, 1994; Miranda and Toran-Allerand, 1992; Toran-Allerand et al., 1992b). […] Isotopically (^35 S)-labeled hybrids were detected in whole explant cultures by desiccating the cultures and apposing them to autoradiographic film (Kodak X-omat). The intensity of mRNA expression was quantified as the density of film exposure over the explant divided by the density over background using a standard morphometrics package (Jandel Scientific).

[13] = molecular target: T1, estrogen receptor (Rattus norvegicus, UniProt P06211); test: Modified nuclear binding assay, basal forebrain explant cultures; type: cell-based; set-up: endogenous in cells; details: P2 rat basal forebrain explants, 8 days in vitro, hrNGF 100 ng/mL
T1 sequence (P06211 1-600): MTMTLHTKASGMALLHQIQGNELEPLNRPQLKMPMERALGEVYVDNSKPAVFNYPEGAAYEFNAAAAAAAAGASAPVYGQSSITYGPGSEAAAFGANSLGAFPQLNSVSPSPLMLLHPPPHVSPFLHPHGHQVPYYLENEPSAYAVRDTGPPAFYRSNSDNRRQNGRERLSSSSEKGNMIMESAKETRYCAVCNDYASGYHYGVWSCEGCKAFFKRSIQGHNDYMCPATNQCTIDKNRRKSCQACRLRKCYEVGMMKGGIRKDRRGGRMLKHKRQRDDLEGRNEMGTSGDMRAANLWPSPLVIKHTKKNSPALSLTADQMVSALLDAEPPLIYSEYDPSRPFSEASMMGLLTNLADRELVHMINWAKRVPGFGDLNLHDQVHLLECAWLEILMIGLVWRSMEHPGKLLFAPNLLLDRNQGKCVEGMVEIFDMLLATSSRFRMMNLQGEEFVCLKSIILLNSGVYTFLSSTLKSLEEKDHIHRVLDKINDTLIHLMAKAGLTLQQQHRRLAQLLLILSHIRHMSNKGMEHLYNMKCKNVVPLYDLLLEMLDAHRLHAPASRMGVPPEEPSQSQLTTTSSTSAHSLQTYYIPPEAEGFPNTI
Source text: as §3
Nuclear receptor binding sites were identified using previously published protocols (Sohrabji et al., 1994a,b) and were standardized for this experiment using both MCF-7 cells and hypothalamic tissue. […] Radioactivity was eluted from nuclear pellets with 95% ethanol (moxestrol is completely soluble in >50% ethanol) and the radioactivity counted in a liquid scintillation counter. […] Specific binding was determined as the difference between total binding and non-specific binding (in the presence of an unlabeled competing ligand) and the data expressed as femtomoles of specifically bound [^3 H] -moxestrol/mg DNA. […]

Compound	p75NGFR mRNA level ([1]; 1 day after estrogen treatment)	p75NGFR mRNA level ([1]; 3 days of estrogen exposure)	p75NGFR mRNA level ([1]; 3 days of estrogen exposure, 4320 min)	p75NGFR mRNA level ([1]; 7 days of estrogen treatment)	Effect on morphology / neurite differentiation [2]	Persistence of tyrosine phosphorylation of the ERKs [3]	Time of maximal tyrosine phosphorylation of the ERKs [3] [min]	Onset of tyrosine phosphorylation of the ERKs ([3]; 24 hrs estrogen and neurotrophin deprivation) [min]	Activity of phosphorylated ERKs in phosphorylating MBP vs untreated controls [4]	Tyrosine phosphorylation of the trk receptors [5]	Time to tyrosine phosphorylation of ERKs 1 and 2 [6] [min]	Estradiol-induced ERK stimulation [7]	Neurite outgrowth [8]	Increase in trkA mRNA [9]	p75NGFR mRNA [10]	Estrogen receptor mRNA (normalized to cyclophilin mRNA) vs control [11]	Estrogen receptor mRNA, density of hybridization signal [12]	Density of estrogen binding sites [13]
C[C@]12CC[C@@H]3c4ccc(O)cc4CC[C@H]3[C@@H]1CC[C@@H]2O [estradiol, 17-β estradiol]	below basal levels	decreased by half	approximately 50 % of baseline	indistinguishable from basal levels; also recorded: no different from basal levels	no readily visible effects; also recorded: did not appear to influence visibly	at least 4 hrs.	30	≤ 5	much more active	induced tyrosine phosphorylation	≤ 15	no estradiol-induced ERK stimulation was observed	little effect	two to three-fold	transient decrease	–	–	–
hrNGF: human recombinant NGF (gift of Louis Burton, Genetech)	–	–	–	–	–	–	–	–	–	–	–	–	–	–	–	no different; also recorded: did not lead to an alteration	No alterations; also recorded: did not lead to an alteration	did not significantly alter and not
